Measured values published in patent publication US12115178B2, “Acylated active agents and methods of their use for the treatment of autoimmune disorders” (Flagship Pioneering Innovations V, Inc., priority 2018, dated 2024).

Tests used:
Format in all cases: in vitro ADME
[1] = Assay 1. Stability in Simulated Gastric Fluid (SGF); settings: SGF pH 1.6 with pepsin, 1 μM, 37° C.
Outline: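 Compound at 1 μM final (from 1 mM DMSO stock) incubated at 37° C in SGF: NaCl medium at pH 1.6 with FaSSIF powder and 0.1 mg/mL pepsin, prepared fresh. Aliquots taken at T0 and regular intervals, quenched with equal volume acetonitrile; LC/MS gives degradation rate.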

[2] = Assay 2. Stability in Simulated Intestinal Fluid (SIF); settings: SIF pH 6.7 with pancreatin, 1 μM, 37° C.
Outline: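 Compounds at 1 µM (from 1 mM DMSO stock) were incubated at 37 °C with agitation in simulated intestinal fluid: FaSSIF in pH 6.7 phosphate buffer with pancreatin. Aliquots taken from T0 onward were quenched with acetonitrile and analyzed by LC/MS for degradation rate.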

[3] = Assay 3. In vitro Colonic Material Stability Assay
[4] = colonic material slurry, anaerobic, 1 or 10 μM

Row | SMILES | Assay 1 (SGF) (% Remaining @ 1 hour) [1] | Assay 2 (SIF) (% @ Remaining 4 hours) [2] | Assay 3 (% Remaining at 24 h) [3, 4] | Assay 3 (% Remaining at 24 h) ([3]; Run 1, colonic material) | Assay 3 (% Remaining at 24 h) ([3]; Run 2, colonic material)
1 | CCC(=O)O[C@H]1[C@@H](OC(=O)CCc2c[nH]c3ccccc23)OC[C@@H](OC(=O)CC)[C@H]1OC(=O)CC [Compound 94, (2R,3R,4R,5R)-3,4,5-tris(propanoyloxy)oxan-2-yl 3-(1H-indol-3-yl)propanoate] | C (>75% of the tested compound remaining) | A (<25% of the tested compound remaining) | A (<25% of the tested compound remaining) |  | 
2 | CCC(=O)O[C@@H]1[C@@H](OC(=O)CC)[C@H](OC(=O)Cc2c[nH]c3ccccc23)OC[C@H]1OC(=O)CC [Compound 76, (2S,3R,4S,5R)-2-{[2-(1H-indol-3-yl)acetyl]oxy}-4,5-bis(propanoyloxy)oxan-3-yl propanoate] | C (>75% of the tested compound remaining) | A (<25% of the tested compound remaining) | A (<25% of the tested compound remaining) |  | 
3 | CCC(=O)O[C@@H]1[C@H](OC)OC[C@@H](OC(=O)CC)[C@H]1OC(=O)CC [Compound 68, (2R,3S,4R,5R)-2-methoxy-3,5-bis(propanoyloxy)oxan-4-yl propanoate] | C (>75% of the tested compound remaining) | A (<25% of the tested compound remaining) | B (25-75% of the tested compound remaining) |  | 
4 | CCC(=O)Oc1ccc(-c2cc(=O)c3c(OC(=O)CC)cc(OC(=O)CC)cc3o2)cc1 [Compound 172, 4-oxo-7-(propanoyloxy)-2-[4-(propanoyloxy)phenyl]-4H-chromen-5-yl propanoate] | C (>75% of the tested compound remaining) | A (<25% of the tested compound remaining) | B (25-75% of the tested compound remaining) |  | 
5 | CCCC(=O)O[C@@H]1[C@@H](OC(=O)CCC)[C@H](C)O[C@@H](OC(=O)CCc2c[nH]c3ccccc23)[C@@H]1OC(=O)CCC [Compound 83, (2S,3R,4R,5S,6S)-4,5-bis(butanoyloxy)-2-{[3-(1H-indol-3-yl)propanoyl]oxy}-6-methyloxan-3-yl butanoate] | C (>75% of the tested compound remaining) | A (<25% of the tested compound remaining) | A (<25% of the tested compound remaining) |  | 
6 | CCC(=O)O[C@@H]1[C@@H](OC(=O)CC)[C@@H](OC(=O)CCc2c[nH]c3ccccc23)OC[C@@H]1OC(=O)CC [Compound 126, (2R,3R,4S,5S)-3,4,5-tris(propanoyloxy)oxan-2-yl 3-(1H-indol-3-yl)propanoate] | C (>75% of the tested compound remaining) | A (<25% of the tested compound remaining) | A (<25% of the tested compound remaining) |  | 
7 | CCC(=O)O[C@@H]1[C@H](OC(=O)CC)COC(O)[C@@H]1OC(=O)CC (stereo partly drawn) [Compound 105, (3R,4R,5R)-2-hydroxy-4,5-bis(propanoyloxy)oxan-3-yl propanoate] | C (>75% of the tested compound remaining) | B (25-75% of the tested compound remaining) | B (25-75% of the tested compound remaining) |  | 
8 | CCCC(=O)OC[C@H]1O[C@@H](OC(=O)CCc2c[nH]c3ccccc23)[C@H](OC(=O)CCC)[C@@H](OC(=O)CCC)[C@@H]1OC(=O)CCC [Compound 85, [(2R,3R,4S,5R,6S)-3,4,5-tris(butanoyloxy)-6-{[3-(1H-indol-3-yl)propanoyl]oxy}oxan-2-yl]methyl butanoate] | B (25-75% of the tested compound remaining) | A (<25% of the tested compound remaining) | A (<25% of the tested compound remaining) |  | 
9 | O=C(CCc1c[nH]c2ccccc12)O[C@@H]1OC[C@@H](OC(=O)CCc2c[nH]c3ccccc23)[C@@H](OC(=O)CCc2c[nH]c3ccccc23)[C@H]1OC(=O)CCc1c[nH]c2ccccc12 [Compound 80, (2S,3R,4R,5R)-3,4,5-tris({[3-(1H-indol-3-yl)propanoyl]oxy})oxan-2-yl 3-(1H-indol-3-yl)propanoate] | C (>75% of the tested compound remaining) | A (<25% of the tested compound remaining) | A (<25% of the tested compound remaining) |  | 
10 | CCCC(=O)OC[C@H]1O[C@H](OC(=O)CCc2c[nH]c3ccccc23)[C@H](OC(=O)CCC)[C@@H](OC(=O)CCC)[C@@H]1OC(=O)CCC [Compound 90, [(2R,3R,4S,5R,6R)-3,4,5-tris(butanoyloxy)-6-{[3-(1H-indol-3-yl)propanoyl]oxy}oxan-2-yl]methyl butanoate] | C (>75% of the tested compound remaining) | B (25-75% of the tested compound remaining) | A (<25% of the tested compound remaining) |  | 
11 | CC(=O)OC[C@H]1O[C@@H](OC(C)=O)[C@H](N)[C@@H](OC(C)=O)[C@@H]1OC(C)=O [Compound 162, (2S,3R,4R,5S,6R)-6-(acetoxymethyl)-3-aminotetrahydro-2H-pyran-2,4,5-triyl triacetate] | C (>75% of the tested compound remaining) | A (<25% of the tested compound remaining) | C (>75% of the tested compound remaining) |  | 
12 | C[C@@H]1O[C@H](OC(=O)CCc2c[nH]c3ccccc23)[C@@H](OC(=O)CCc2c[nH]c3ccccc23)[C@H](OC(=O)CCc2c[nH]c3ccccc23)[C@@H]1OC(=O)CCc1c[nH]c2ccccc12 [Compound 70, (2R,3S,4R,5R,6S)-3,4,5-tris({[3-(1H-indol-3-yl)propanoyl]oxy})-6-methyloxan-2-yl 3-(1H-indol-3-yl)propanoate] | B (25-75% of the tested compound remaining) | A (<25% of the tested compound remaining) |  | A (<25% of the tested compound remaining) | B (25-75% of the tested compound remaining)
13 | CCC(=O)O[C@@H]1[C@@H](OC(=O)CC)[C@@H](OC(=O)CC)C(O)O[C@H]1C (stereo partly drawn) [Compound 113, (3R,4R,5S,6S)-2-hydroxy-6-methyl-4,5-bis(propanoyloxy)oxan-3-yl propanoate] | C (>75% of the tested compound remaining) | A (<25% of the tested compound remaining) | C (>75% of the tested compound remaining) |  | 
14 | CCC(=O)O[C@@H]1[C@@H](OC(=O)CC)[C@H](C)O[C@H](OC(=O)/C=C/c2c[nH]c3ccccc23)[C@@H]1OC(=O)CC [Compound 107, (2R,3R,4R,5S,6S)-6-methyl-3,4,5-tris(propanoyloxy)oxan-2-yl (2E)-3-(1H-indol-3-yl)prop-2-enoate] | B (25-75% of the tested compound remaining) | A (<25% of the tested compound remaining) | B (25-75% of the tested compound remaining) |  | 
15 | CCC(=O)O[C@@H]1[C@@H](OC(=O)CC)[C@@H](OC)OC[C@H]1OC(=O)CC [Compound 72, (2S,3R,4S,5R)-2-methoxy-4,5-bis(propanoyloxy)oxan-3-yl propanoate] | C (>75% of the tested compound remaining) | B (25-75% of the tested compound remaining) | A (<25% of the tested compound remaining) |  | 
16 | CCC(=O)OC[C@H]1O[C@H](OC(=O)CCc2c[nH]c3ccccc23)[C@H](OC(=O)CC)[C@@H](OC(=O)CC)[C@@H]1OC(=O)CC [Compound 109, [(2R,3R,4S,5R,6R)-6-{[3-(1H-indol-3-yl)propanoyl]oxy}-3,4,5-tris(propanoyloxy)oxan-2-yl]methyl propanoate] | C (>75% of the tested compound remaining) | A (<25% of the tested compound remaining) | A (<25% of the tested compound remaining) |  | 
17 | CCC(=O)O[C@H]1OC[C@@H](OC(=O)CC)[C@@H](OC(=O)CC)[C@H]1OC(=O)CC [Compound 101, (2R,3R,4R,5R)-3,4,5-tris(propanoyloxy)oxan-2-yl propanoate] | C (>75% of the tested compound remaining) | A (<25% of the tested compound remaining) | A (<25% of the tested compound remaining) |  | 
18 | CCC(=O)O[C@@H]1[C@@H](OC(=O)CC)[C@H](C)O[C@@H](OC(=O)/C=C/c2c[nH]c3ccccc23)[C@@H]1OC(=O)CC [Compound 102, (2S,3R,4R,5S,6S)-6-methyl-3,4,5-tris(propanoyloxy)oxan-2-yl (2E)-3-(1H-indol-3-yl)prop-2-enoate] | C (>75% of the tested compound remaining) | B (25-75% of the tested compound remaining) | A (<25% of the tested compound remaining) |  | 
19 | CCC(=O)O[C@@H]1OC[C@@H](OC(=O)CC)[C@@H](OC(=O)CC)[C@H]1OC(=O)CC [Compound 104, (2S,3R,4R,5R)-3,4,5-tris(propanoyloxy)oxan-2-yl propanoate] | C (>75% of the tested compound remaining) | A (<25% of the tested compound remaining) | A (<25% of the tested compound remaining) |  | 
